From ChEMBL document CHEMBL3259779, “Discovery of pyrazolopyridones as a novel class of noncovalent DprE1 inhibitor with potent anti-mycobacterial activity” (J Med Chem, 2014)
pIC50: −log10 of the molar value. In brackets after ≈: the same amount, converted by molar mass.

Key:
[1] = test system: Mycobacterium tuberculosis; test: Antimycobacterial activity against Mycobacterium tuberculosis H37Rv ATCC 27294 assessed as growth inhibition after 5 days by microdilution method; type: functional; conditions: H37Rv ATCC 27294, 120 h
[2] = test system: Mycobacterium tuberculosis; test: Antimycobacterial activity against Mycobacterium tuberculosis Beijing (E-47/94) assessed as growth inhibition after 2 to 3 weeks by turbidometry; type: functional
[3] = test system: Mycobacterium tuberculosis; test: Antimycobacterial activity against Mycobacterium tuberculosis H37Rv ATCC 27294 assessed as growth inhibition after 2 to 3 weeks by turbidometry; type: functional
[4] = test system: Mycobacterium tuberculosis; test: Antimycobacterial activity against Mycobacterium tuberculosis D-211 assessed as growth inhibition after 2 to 3 weeks by turbidometry; type: functional
[5] = test system: Mycobacterium tuberculosis; test: Antimycobacterial activity against wild type Mycobacterium tuberculosis H37Rv assessed as growth inhibition by resazurin assay; type: functional
[6] = Aqueous kinetic solubility of the compound in 0.1 M phosphate buffer at pH 7.4 by UV-MS analysis; type: physicochemical; conditions: read-out: Kinetic_solubility
[7] = Octanol-water partition coefficient, log D of the compound by shake flask method; type: physicochemical
[8] = Fraction unbound in human plasma at 20 uM by equilibrium dialysis technique; type: ADME, cell-free
[9] = Selectivity index, ratio of IC50 human A549 cells to MIC for Mycobacterium tuberculosis; type: toxicity, cell-based; conditions: read-out: Selectivity Index
[10] = test system: Mycobacterium tuberculosis; test: Antimycobacterial activity against Mycobacterium tuberculosis H37Rv ATCC 27294 assessed as reduction of colony forming units by microdilution method; type: functional
[11] = Inhibition of Mycobacterium smegmatis DprE1 expressed in Escherichia coli Rosetta cells using farnesyl-phosphoryl-beta-D-ribofuranose as substrate by fluorescence analysis; parameters: species or system Mycolicibacterium smegmatis
[12] = Inhibition of Mycobacterium smegmatis DprE1 C394G mutant expressed in Escherichia coli Rosetta cells using farnesyl-phosphoryl-beta-D-ribofuranose as substrate by fluorescence analysis; parameters: species or system Mycolicibacterium smegmatis
[13] = Inhibition of Mycobacterium smegmatis DprE1 Y321H mutant expressed in Escherichia coli Rosetta cells using farnesyl-phosphoryl-beta-D-ribofuranose as substrate by fluorescence analysis; parameters: species or system Mycolicibacterium smegmatis
[14] = test system: Mycolicibacterium smegmatis; test: Ratio of IC50 for Mycobacterium smegmatis DprE1 Y321H mutant expressed in Escherichia coli Rosetta cells to IC50 for wild type Mycobacterium smegmatis DprE1 expressed in Escherichia coli Rosetta cells
[15] = test system: Mycolicibacterium smegmatis; test: Ratio of IC50 for wild type Mycobacterium smegmatis DprE1 expressed in Escherichia coli Rosetta cells to IC50 for Mycobacterium smegmatis DprE1 C394G mutant expressed in Escherichia coli Rosetta cells
[16] = test system: Mycolicibacterium smegmatis; test: Ratio of IC50 for Mycobacterium smegmatis DprE1 C394G mutant expressed in Escherichia coli Rosetta cells to IC50 for wild type Mycobacterium smegmatis DprE1 expressed in Escherichia coli Rosetta cells
[17] = test system: Mycobacterium tuberculosis; test: Antimycobacterial activity against Mycobacterium tuberculosis H37Rv infected in human THP-1 cells assessed as log reduction in colony forming units at 16 uM incubated for 7 days measured after 21 to 28 days; type: functional
[18] = test system: Mycobacterium tuberculosis; test: Antimycobacterial activity against Mycobacterium tuberculosis H37Rv assessed as bacterial killing by two-fold serial dilution method; type: functional, organism-based; conditions: TDE = time-dependent effect
[19] = test system: Mycobacterium tuberculosis; test: Antimycobacterial activity against Mycobacterium tuberculosis H37Rv assessed as log reduction in colony forming units on day 10 by two-fold serial dilution method; type: functional

Row | SMILES | MIC [1] [µM] | MIC [5] [µM] | MBC [10] [µM] | pIC50 [11] | further results
1 | Cc1nn(-c2ccccn2)c2[nH]c(=O)c(CNCc3cccc(C(F)(F)F)c3)cc12 | > 100 |  |  |  | 
2 | O=c1[nH]c2c(cc1CNCc1cccc(C(F)(F)F)c1)c(C1CC1)nn2-c1ccccc1 | 1.5 (≈ 0.658 µg/mL) | > 0.1 | 2.8 (≈ 1.23 µg/mL) | 7.40 | MIC [2]: 1.6 µM (≈ 0.702 µg/mL); MIC [3]: 1.6 µM (≈ 0.702 µg/mL); MIC [4]: 1.6 µM (≈ 0.702 µg/mL); solubility kinetic [6]: 1 µM (≈ 0.438 µg/mL); logD [7]: 3.9; fraction unbound at 20 µM [8]: 0.01; selectivity ratio [9]: 10
3 | Cc1nn(C)c2[nH]c(=O)c(CNCc3cccc(C(F)(F)F)c3)cc12 | > 100 |  |  | < 4.00 | 
4 | O=c1[nH]c2c(cc1CNCc1cccc(C(F)(F)F)n1)c(C1CC1)nn2-c1ccccc1 | 3.1 (≈ 1.36 µg/mL) | > 0.1 | 5.6 (≈ 2.46 µg/mL) | 7.30 | pIC50 [12]: 7.70; pIC50 [13]: 5.21; Ratio IC50 [14]: 40; solubility kinetic [6]: 153 µM (≈ 67.2 µg/mL); logD [7]: 3.2; fraction unbound at 20 µM [8]: 0.011; selectivity ratio [9]: 20; Ratio IC50 [15]: 6
5 | Cc1ccc(C(F)(F)F)cc1CNCc1cc2c(C)nn(-c3ccccc3)c2[nH]c1=O | 0.8 (≈ 0.341 µg/mL) |  | 1.2 (≈ 0.512 µg/mL) | 8.15 | pIC50 [12]: 8.00; pIC50 [13]: 5.82; Ratio IC50 [16]: 1; Ratio IC50 [14]: 150; solubility kinetic [6]: 55 µM (≈ 23.5 µg/mL); logD [7]: 3.7; fraction unbound at 20 µM [8]: < 0.01; selectivity ratio [9]: 20
6 | Cc1nn(-c2ccccc2)c2[nH]c(=O)c(CNCc3cccc(C#N)c3)cc12 | > 100 |  |  | 5.59 | 
7 | NNC(=O)c1ccncc1 [ISONIAZID] |  | 5 (≈ 0.686 µg/mL) |  |  | MIC [2]: 0.2 µM (≈ 0.0274 µg/mL); MIC [3]: 0.2 µM (≈ 0.0274 µg/mL); MIC [4]: 0.2 µM (≈ 0.0274 µg/mL)
8 | CN[C@@H]1[C@H](O[C@H]2[C@H](O[C@H]3[C@H](O)[C@@H](O)[C@H](N=C(N)N)[C@@H](O)[C@@H]3N=C(N)N)O[C@@H](C)[C@]2(O)C=O)O[C@@H](CO)[C@H](O)[C@H]1O [STREPTOMYCIN] |  |  |  |  | MIC [2]: 0.3 µM (≈ 0.174 µg/mL); MIC [3]: 0.3 µM (≈ 0.174 µg/mL); MIC [4]: 0.3 µM (≈ 0.174 µg/mL)
9 | Cc1nn(-c2ccccc2)c2[nH]c(=O)c(CN3CCc4ccc(C(F)(F)F)cc4C3)cc12 | > 100 |  |  | 5.21 | 
10 | C[C@@H](NC(=O)c1cc([N+](=O)[O-])cc(C(F)(F)F)c1)c1ccccc1 |  | 0.943 (≈ 0.319 µg/mL) |  |  | 
11 | O=c1[nH]c2c(cc1CNCc1cc(C(F)(F)F)ccc1F)c(C1CC1)nn2-c1ccccc1 | 1.6 (≈ 0.73 µg/mL) | 0.002 (≈ 0.000913 µg/mL) | 4.4 (≈ 2.01 µg/mL) | 7.40 | pIC50 [12]: 8.00; pIC50 [13]: 5.35; Ratio IC50 [14]: 107; Ratio IC50 [15]: 4
12 | O=c1[nH]c2c(cc1CNCc1cccc(C(F)(F)F)c1F)c(C1CC1)nn2-c1ccccc1 | 1.6 (≈ 0.73 µg/mL) | 0.003 (≈ 0.00137 µg/mL) | 4.1 (≈ 1.87 µg/mL) | > 8.30 | pIC50 [12]: 7.22; pIC50 [13]: 5.09; Ratio IC50 [14]: 38; Ratio IC50 [15]: 4
13 | Cc1ccc(-n2nc(C)c3cc(CNCc4cccc(C(F)(F)F)c4)c(=O)[nH]c32)cc1 | 12.5 (≈ 5.33 µg/mL) |  | 12.5 (≈ 5.33 µg/mL) | 6.22 | 
14 | CCOC(=O)NC(=O)c1ccsc1NC(=O)c1nc2ccccc2s1 |  | 0.5 (≈ 0.188 µg/mL) |  |  | 
15 | Cc1nn(-c2ccccc2)c2[nH]c(=O)c(CN(C)Cc3cccc(C(F)(F)F)c3)cc12 | 1 (≈ 0.426 µg/mL) |  |  | 7.22 | 
16 | CO[C@H]1/C=C/O[C@@]2(C)Oc3c(C)c(O)c4c(O)c(c(/C=N/N5CCN(C)CC5)c(O)c4c3C2=O)NC(=O)/C(C)=C\C=C\[C@H](C)[C@H](O)[C@@H](C)[C@@H](O)[C@@H](C)[C@H](OC(C)=O)[C@@H]1C [RIFAMPIN] |  |  |  |  | MIC [2]: 0.02 µM (≈ 0.0165 µg/mL); MIC [3]: 0.02 µM (≈ 0.0165 µg/mL); MIC [4]: 0.02 µM (≈ 0.0165 µg/mL)

Row | SMILES | MIC [1] [µM] | MIC [5] [µM] | MBC [10] [µM] | pIC50 [11] | further results
17 | COc1ncnc(Cn2cc(C(=O)NCCF)c3ncccc32)c1C |  | 1.51 (≈ 0.52 µg/mL) |  | 8.30 | 
18 | Cc1nn(-c2ccccc2)c2c1cc(CNCc1cccc(C(F)(F)F)c1)c(=O)n2C | > 100 |  |  | < 5.00 | 
19 | Cc1cccc(CNCc2cc3c(C)nn(-c4ccccc4)c3[nH]c2=O)c1 | 100 (≈ 35.8 µg/mL) |  | 100 (≈ 35.8 µg/mL) | 5.55 | 
20 | CC1COc2c(N3CCN(C)CC3)c(F)cc3c(=O)c(C(=O)O)cn1c23 (stereo unspecified) [OFLOXACIN] |  |  |  |  | MIC [2]: 0.7 µM (≈ 0.253 µg/mL); MIC [3]: 0.7 µM (≈ 0.253 µg/mL); MIC [4]: 0.7 µM (≈ 0.253 µg/mL)
21 | Cc1ccc(C(F)(F)F)cc1CNCc1cc2c(C(C)C)nn(-c3ccccc3)c2[nH]c1=O | 0.4 (≈ 0.182 µg/mL) |  | < 0.5 | > 8.30 | solubility kinetic [6]: 10 µM (≈ 4.54 µg/mL); logD [7]: > 4.4; fraction unbound at 20 µM [8]: < 0.01; selectivity ratio [9]: 35
22 | C[C@H]1COC2(CCN(c3nc(=O)c4cc(C(F)(F)F)cc([N+](=O)[O-])c4s3)CC2)O1 [BTZ-043] |  | 0.003 (≈ 0.00129 µg/mL) |  | 8.30 | 
23 | Cc1nn(-c2ccccc2)c2[nH]c(=O)c(CNCc3ccccc3)cc12 | > 100 |  |  | 5.85 | 
24 | Cc1ccc(C(F)(F)F)cc1CNCc1cc2c(C3CC3)nn(-c3ccccc3)c2[nH]c1=O | 0.1 (≈ 0.0452 µg/mL) | 0.002 (≈ 0.000905 µg/mL) | < 0.5 | 8.00 | log10cfu [17]: 1; pIC50 [13]: 5.13; Ratio IC50 [16]: 1; Ratio IC50 [14]: 740; solubility kinetic [6]: < 1 µM; logD [7]: 3.9; fraction unbound at 20 µM [8]: < 0.01; selectivity ratio [9]: > 250; Activity [18]: tde; log10cfu [19]: >4
25 | Cc1nn(-c2ccccc2)c2[nH]c(=O)c(CNCc3cccc(C(F)(F)F)c3)cc12 | 3.1 (≈ 1.28 µg/mL) | > 0.1 | 8.5 (≈ 3.51 µg/mL) | 6.40 | MIC [2]: 3.1 µM (≈ 1.28 µg/mL); MIC [3]: 3.1 µM (≈ 1.28 µg/mL); MIC [4]: 3.1 µM (≈ 1.28 µg/mL)
26 | COc1nc2c(cc1CNCc1cccc(C(F)(F)F)c1)c(C)nn2-c1ccccc1 | > 100 |  |  | < 5.00 | 
27 | Cc1nn(-c2ccccc2)c2[nH]c(=O)c(C(=O)NCc3cccc(C(F)(F)F)c3)cc12 | > 100 |  |  | 6.00 | 
28 | CC[C@@H](CO)NCCN[C@@H](CC)CO [ETHAMBUTOL] |  |  |  |  | MIC [2]: 2 µM (≈ 0.409 µg/mL); MIC [3]: 2 µM (≈ 0.409 µg/mL); MIC [4]: 2 µM (≈ 0.409 µg/mL)
29 | Cc1ccc(CNCc2cc3c(C)nn(-c4ccccc4)c3[nH]c2=O)cc1C | 25 (≈ 9.31 µg/mL) |  | 50 (≈ 18.6 µg/mL) | 5.92 | 
30 | Cc1nn(-c2ccccc2)c2[nH]c(=O)c(CNCc3cccc(F)c3)cc12 | 75 (≈ 27.2 µg/mL) |  | 100 (≈ 36.2 µg/mL) | 5.70 | 
31 | Cc1ccc(C(F)(F)F)nc1CNCc1cc2c(C3CC3)nn(-c3ccccc3)c2[nH]c1=O | 1.5 (≈ 0.68 µg/mL) |  | 1.6 (≈ 0.726 µg/mL) | 8.00 | solubility kinetic [6]: 1 µM (≈ 0.453 µg/mL); logD [7]: 3.4; fraction unbound at 20 µM [8]: < 0.01; selectivity ratio [9]: 10
